For this assay, the system named is 7D4 mAb (mouse monoclonal anti-prometryn antibody). Description: ic-ELISA cross-reactivity of the 7D4 mAb with triazines. In kind it is binding. The conditions noted are these: for Cross-Reactivity: relative to prometryn = 100%. The procedure:
The ic-ELISA method was used to screen the best-performing fusion mouse sera. They were used to establish the standard curve of antibodies by detecting the supernatant of positive cells. The buffer required for ic-ELISA was the same as previously reported. The specific steps of the operation are as follows: (1) The coated antigen was added to the microplate by diluting it with the required coating solutions (CBS, pH 9.6, 0.05 mol/L). Each well contained 100 µL, which was incubated at 37 °C for three h before being washed three times with washing buffer (PBST, PBS containing 0.1% Tween-20). (2) With sample dilution buffer (PBSTG, PBST containing 0.1% gelatin), the standard prometryn sample and the antiserum/antibody from mice were diluted to the required concentration. The microplate was incubated for 30 min at 37 °C with 50 µL of diluted antiserum or antibody and standard samples of various concentrations. PBST was used three times to wash the dishes. (3) Then, 100 µL of PBSTG-diluent IgG HRP (labeled goat anti-mouse IgG with HRP) was added to each well. After 30 min at 37 °C, the plate was cleaned three times with PBST. (4) Each well was incubated for 15 min in the dark at 25 °C with 100 µL of TMB color developing solution. To stop the reaction, 50 µL of the hydrochloric acid solution was added to each well. The absorbance at OD450 nm was measured with a TECAN Infinite M200 PRO microplate reader from Männedorf, Switzerland.
The ic-ELISA method was used to determine the ideal antibody and antigen mix. The coating antigen and antibody concentration used in the experiment was 1 mg/mL. The dilution multiples of the coating were 1 × 10^3, 2 × 10^3, 4 × 10^3, and 8 × 10^3. The prometryn standard was 1000 ng/mL. The best concentration combination of antigen and antibody was selected to establish the standard curve of the antibody. Prometryn standards were diluted to 1000, 500, 250, 125, 62.5, 31.25, 15.625, 7.8125, 3.90625, and 0 ng/mL, with PBSTG for subsequent ic-ELISA experiments. The standard curve was determined by ic-ELISA. […] Each measured OD value in the curve is the average of three independent repeats. The 7D4 mAb’s inhibition rate was well linearly correlated with the prometryn concentration. […] The 7D4 mAb type was identified as IgG1 using a mouse antibody isotyping kit from Sigma®, St. Louis, MO, USA.
Eleven triazine herbicides were selected to determine their cross-reactivity with 7D4 mAb. […] The cross-reaction rate with the other seven triazines was less than 1%. The hybridoma cell line 7D4 screened in this study can specifically recognize prometryn. […] The cross-reaction rate may vary depending on the immunoassay format and the competitive hapten preparation used.
A general note: ELISA stands for enzyme-linked immunosorbent assay.

This passage reports IC50 and Cross-Reactivity results from PMC9855386, “Obtaining a Monoclonal Antibody against a Novel Prometryn-Like Hapten and Characterization of Its Selectivity for Triazine Herbicides” (Biosensors, 2022).

For `CSc1nc(NC(C)C)nc(NC(C)C)n1` [Prometryn, 2-methylthio-4,6-di(isopropylamino)-1,3,5-triazobenzene], the Cross-Reactivity was 100%. Also, where the note is “ic-ELISA, analyte 1000-15.625 and 0 ng/mL”, the IC50 came to 3.901 ng/mL. For the same molecule, where the note is “listed as prometryn”, the Cross-Reactivity came out at 100%.

A word on the IC50: it is the concentration that gives 50% inhibition.
